The values below come from US12685733B2, “Indole molecules and use thereof in the inhibition of DNA polymerases” (BioVentures, LLC, priority 2019, dated 2026).

Structures are written as SMILES.

In the first test the target is T1, recombinant hpol κ (Homo sapiens, UniProt Q9UBT6).
T1 sequence (Q9UBT6 1-870): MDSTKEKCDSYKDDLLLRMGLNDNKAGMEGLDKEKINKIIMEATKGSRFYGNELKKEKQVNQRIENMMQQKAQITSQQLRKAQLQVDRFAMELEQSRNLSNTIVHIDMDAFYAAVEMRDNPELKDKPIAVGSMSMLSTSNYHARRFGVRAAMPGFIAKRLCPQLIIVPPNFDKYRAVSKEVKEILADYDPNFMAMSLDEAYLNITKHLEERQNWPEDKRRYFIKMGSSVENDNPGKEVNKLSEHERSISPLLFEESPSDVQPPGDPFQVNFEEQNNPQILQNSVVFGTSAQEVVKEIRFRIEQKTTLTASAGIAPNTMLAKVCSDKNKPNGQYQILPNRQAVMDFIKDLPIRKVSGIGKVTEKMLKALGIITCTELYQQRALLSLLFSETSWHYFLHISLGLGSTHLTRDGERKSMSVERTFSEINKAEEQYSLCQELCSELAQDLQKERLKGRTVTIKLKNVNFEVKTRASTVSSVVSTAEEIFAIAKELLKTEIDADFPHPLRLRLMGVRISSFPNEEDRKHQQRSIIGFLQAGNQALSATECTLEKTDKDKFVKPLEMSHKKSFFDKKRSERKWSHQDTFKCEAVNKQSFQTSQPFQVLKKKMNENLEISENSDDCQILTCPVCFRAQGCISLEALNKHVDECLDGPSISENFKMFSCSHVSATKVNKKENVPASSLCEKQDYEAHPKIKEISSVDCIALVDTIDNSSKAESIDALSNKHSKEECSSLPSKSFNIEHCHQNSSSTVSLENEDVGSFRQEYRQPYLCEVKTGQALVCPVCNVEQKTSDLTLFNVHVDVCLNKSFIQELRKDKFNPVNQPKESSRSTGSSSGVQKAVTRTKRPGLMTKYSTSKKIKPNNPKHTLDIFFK
Experiment: not given
To be noted: earlier screen; cited from earlier work.
For the compound `CC(C)c1ccc2c(c1)c(SC(C)(C)C)c(CC(C)(C)C(=O)O)n2Cc1ccc(Cl)cc1` [MK-886], the “IC50 for inhibition of recombinant hpol κ” value is reported as “tens of micromolar”. Take `CCOc1nc2cccc(C(=O)OC(C)OC(=O)OC3CCCCC3)c2n1Cc1ccc(-c2ccccc2-c2nn[nH]n2)cc1` (stereo not drawn) [candesartan, candesartan cilexetil]: the “IC50 for inhibition of recombinant hpol κ” value is given as “tens of micromolar”.

A further test concerns hpol κ-proficient HAP-1 cells. Briefly: Clonogenic survival assay. Format: cell-based, human. The conditions noted are these: 250 μM TMZ alone. The protocol: (§1) HAP-1 and hpol κ^KO cells were purchased from Horizons Discovery Group LLC (Cambridge, UK). The company generated the Hap1 cells using CRISPR-Cas9 technology and the elimination of kappa expression was confirmed by Sanger sequence genome editing. We further confirmed the elimination of hpol κ protein expression by Western blotting (data not shown). Hap1 cells were cultured in Iscove's modified Dulbecco's medium (IMDM; Invitrogen, CA, USA) supplemented with 10% (v/v) fetal bovine serum (FBS; Atlas Biologicals, CO, USA) and 1% (v/v) antibiotic/antimycotic solution (Sigma-Aldrich, MO, USA).T98G cells were purchased from ATCC (American Type Culture Collection, VA, USA). T98G cells were cultured in MEM (Minimum Essential Medium) (Invitrogen, CA, USA) supplemented with 10% (v/v) FBS (Fetal Bovine Serum, Atlas Biologicals, CO, USA) and antibiotic/antimycotic solution (1%, v/v) (Sigma-Aldrich, MO, USA). NT2 cells were kindly provided by Dr. Michael Borrelli (University of Arkansas for Medical Sciences, AR, USA). NT2 cells were cultured in DMEM/F12 (Dulbecco's Modified Eagle Medium) supplemented with 10% (v/v) FCS (Fetal Calf Serum) and antibiotic/antimycotic solution (1%) (Sigma-Aldrich, MO, USA).
(§2) To measure the clonogenic ability, cells were plated (500 cells per well) in 6-well dishes. In the case of HAP-1 cells, cells were treated the following day after plating, with temozolomide (TMZ) (0, 1, 5, 50, 125 and 250 μM) alone or in combination with UAMS-48 (0.1 and 0.5 μM) for 1 hour. In the case of T98G and NT2 cells, treatment was done on the following day of plating, with increasing concentrations of TMZ alone or in combination with UAMS-48 (50 nM) for 3 hrs. T98G and NT2 cells were treated with increasing concentrations of UAMS-48 for 3 hrs. After treatment, cells were cultured in fresh IMDM supplemented with 10% FBS for 10 days. The colonies were gently washed with 1×PBS, fixed with 3.7% (v/v) formaldehyde for 20 mins at RT and stained with crystal violet solution (Sigma-Aldrich, MO, USA) for 30 mins at RT.
(§3) The fixed crystal-violet stained colonies in each 6-well plate were examined under an EVOS XL Core imaging system (Thermo Fisher Scientific) under bright-field, and the colonies were inspected manually. […] Color images of each 6-well plate were captured and opened for processing using the Fiji version of the freely available software ImageJ. Setting the appropriate threshold for counting colonies for each cell type, corresponding to the respective radii calculated previously, the colonies were counted using the Colony Area plugin of ImageJ. Manual counting was performed on a few wells picked randomly, and the colony count so obtained was tallied with the number obtained using ImageJ, to ensure they matched reasonably. All experiments were performed in triplicate, and the colony number for each well was expressed as the mean (±standard deviation). The results were plotted to generate a dose response curve for TMZ treatment using the software Graphpad Prism, where the mean number of colonies was plotted along the Y-axis, and the TMZ concentration along the X-axis. Bar charts comparing the mean number of colonies as a function of the various conditions were also plotted for both cell types. Combination index values were calculated using the Chou-Talalay method (Chou 2010).
Take `Cn1nnc2c(C(N)=O)ncn2c1=O` [TMZ, temozolomide, reference compound]: the “colonies formed relative to control” value is reported as ~ 75%.

The next test deals with hpol κ-deficient HAP-1 cells. Put plainly: Clonogenic survival assay. Format: cell-based, human. The conditions noted are these: 250 μM TMZ. How it is done:
as §1, §2, §3
Regarding `Cn1nnc2c(C(N)=O)ncn2c1=O` [TMZ, temozolomide, reference compound], the “colonies formed relative to untreated cells” value was “less than 50%”.

A further test addresses T2, hpol κ (Homo sapiens, UniProt Q9UBT6).
T2 sequence (Q9UBT6 19-526): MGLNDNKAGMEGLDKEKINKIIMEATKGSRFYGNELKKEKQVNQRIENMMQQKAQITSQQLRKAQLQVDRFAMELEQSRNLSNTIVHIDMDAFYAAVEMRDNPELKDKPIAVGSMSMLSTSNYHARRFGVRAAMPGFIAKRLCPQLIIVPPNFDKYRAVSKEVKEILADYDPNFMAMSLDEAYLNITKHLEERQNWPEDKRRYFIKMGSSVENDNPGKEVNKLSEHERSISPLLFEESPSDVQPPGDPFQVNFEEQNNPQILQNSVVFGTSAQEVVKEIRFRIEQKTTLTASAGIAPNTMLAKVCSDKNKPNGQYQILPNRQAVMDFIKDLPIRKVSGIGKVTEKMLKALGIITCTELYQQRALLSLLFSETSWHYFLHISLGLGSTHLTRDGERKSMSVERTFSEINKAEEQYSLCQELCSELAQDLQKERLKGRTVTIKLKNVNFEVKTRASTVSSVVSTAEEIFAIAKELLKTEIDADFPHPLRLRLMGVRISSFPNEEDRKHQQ
Briefly: Fluorescence-based (TAMRA/BHQ strand displacement) DNA polymerase activity assay. The conditions noted are these: read-out: % Activity Mean (hpol κ activity).
As for `O=C1NC(=S)NC(=O)C1=Cc1cn(Cc2ccc(Br)cc2)c2ccc(COCCN3CCOCC3)cc12` [IBA-22], the activity at 40 µM was found to be 91.1%. On the same count and under the same terms, next, `COc1ccc2c(c1)c(C=C1C(=O)NC(=S)NC1=O)c(C)n2Cc1cccc2ccccc12` [IBA-23]: 91%; `N#Cc1ccc(Cn2cc(C=C3C(=O)NC(=O)NC3=O)c3cccnc32)cc1` [IBA-24]: 88.8%. For the compound `O=C1NC(=S)NC(=O)C1=Cc1cn(C(=O)c2ccc3ccccc3c2)c2ccc(Cl)cc12` [IBA-25], the activity at 40 µM worked out at 87.6%.

For `Cc1c(C=C2C(=O)NC(=S)NC2=O)c2ccccc2n1C(=O)c1cccc2ccccc12` [IBA-26], the activity at 40 µM stood at 86.4%. For the compound `O=C1NC(=S)NC(=O)C1=Cc1cn(C(=O)c2cccc3ccccc23)c2ccc(Cl)cc12` [IBA-27], the activity at 40 µM is 85.8%. On to `O=C1NC(=S)NC(=O)C1=Cc1cn(Cc2ccc3ccccc3c2)c2ncc(Cl)cc12` [IBA-28], for which the activity at 40 µM was found to be 84.4%. On to `O=C1NC(=S)NC(=O)C1=Cc1cn(C(=O)c2cccc3ccccc23)c2ccccc12` [IBA-29], for which the activity at 40 µM worked out at 83.3%. Still for that read-out and setting: the value for `O=C1NC(=S)NC(=O)C1=Cc1cn(C(=O)c2ccc3ccccc3c2)c2ccccc12` [IBA-30] was 81.4%; that for `O=C1NC(=O)C(=Cc2cn(Cc3ccc4ccccc4c3)c3ccc(Cl)cc23)C(=O)N1` [IBA-31] was 67.6%; that for `O=C1NC(=S)NC(=O)C1=Cc1cn(Cc2ccc3ccccc3c2)c2ccc(Cl)cc12` [IBA-32] was 56.5%. On to `O=C1NC(=O)C(=Cc2cn(Cc3ccc4ccccc4c3)c3ccccc23)C(=O)N1` [IBA-33], for which the activity at 40 µM was determined as 17.9%. On the same count and under the same terms, next, `O=C1NC(=S)NC(=O)C1=Cc1cn(Cc2cccc3ccccc23)c2ccc(Br)cc12` [IBA-34]: 3.7%.

Still in this test, the particulars now being: steady-state kinetics with varying inhibitor concentration.
`O=C1NC(=S)NC(=O)C1=Cc1cn(Cc2ccc3ccccc3c2)c2ccc(Cl)cc12` [IBA-32]: the “turnover number (kcat), hpol κ-catalyzed dTTP insertion” value is “it was the kcat and not the KdNTP that was altered”.
